Common to all, as to format: cell-based
In one assay the target is MCT1 (Homo sapiens (Human), UniProt P53985). In words: MCT1-mediated lactate transport in BT20 breast cancer cells. Conditions: native MCT1, 10 mM L-lactate, Table 2. On the procedure:
10 μL of a 30 mM DMSO stock of BCECF-AM ester (Life Technologies) is added and the cells are incubated at 37° C. for 5 min. The cells are pelleted (300 g, 5 min), washed once with 1 mL Tyrode's Solution, pH 7.4, re-pelleted (300 g, 5 min), and resuspended in 1 mL Tyrode's Solution, pH 7.4.
2.5 μL BCECF-loaded cells, along with either 10 μL DMSO or 100×compound in DMSO, are added to 937.5 μL of Tyrode's Solution in a quartz 1.0 mL cuvette (PerkinElmer, B0631116). […] After establishing baseline BCECF fluorescence (around 10-20 s), 50 μL of 1 M sodium L-lactate (Sigma-Aldrich) is added to the cuvette (final concentration: 50 mM) and rapidly mixed. The time-dependent decrease in BCECF fluorescence (490/440 ratio) may be fit to an exponential decay curve (Prism GraphPad) to determine the rate of lactate transport.
Assay 4: MCT1-Mediated Lactate Transport in BT20 Breast Cancer Cells.
Preparation of BCECF loaded cells are as described for Assay 1. Lactate transport assay is as described for Assay 1, except 10 mM L-lactate (rather than 50 mM) is added.

The target in assay [1] is T1, MCT4 (Homo sapiens (Human), UniProt O15427). In words: Lactate transport in MCT4-expressing MDA-MB-453 breast cancer cells (BCECF). Conditions: MDA-MB-453 cells stably expressing MCT4; 50 mM L-lactate. On the procedure:
Assay 1: Lactate Transport in MCT4-Expressing MDA-MB-453 Breast Cancer Cells. […] The following is an exemplary procedure for assaying MCT4 activity of the compounds of Formula (I). Preparing BCECF-Loaded Cells: […] The cells are pelleted (300 g, 5 min), washed once with 1 mL Tyrode's Solution, pH 7.4, re-pelleted (300 g, 5 min), and resuspended in 1 mL Tyrode's Solution, pH 7.4. Lactate Transport Assay: […] Fluorescence measurements are performed on a PerkinElmer LS55 fluorescence spectrometer with dual excitation wavelengths achieved using a filter wheel (FL Winlab program: Fast Filter; […] Emission 535). After establishing baseline BCECF fluorescence (around 10-20 s), 50 μL of 1 M sodium L-lactate (Sigma-Aldrich) is added to the cuvette (final concentration: 50 mM) and rapidly mixed.

Assay [2] has as its target T1, MCT4. The experiment in a line: MCT4-mediated lactate transport in NCI-H358 lung adenocarcinoma cells. Particulars: native MCT4, 50 mM L-lactate. On the procedure: Cells (˜7×10^6) are trypsinized (0.05% Trypsin-EDTA), pelleted (300 g, 5 min), and resuspended in 1 mL Tyrode's Solution, pH 7.4 (119 mM NaCl, 5 mM KCl, 25 mM HEPES, pH 7.4, 2 mM CaCl2, 2 mM MgCl2, 6 g/L glucose). 10 μL of a 30 mM DMSO stock of BCECF-AM ester (Life Technologies) is added and the cells are incubated at 37° C. for 5 min. The cells are pelleted (300 g, 5 min), washed once with 1 mL Tyrode's Solution, pH 7.4, re-pelleted (300 g, 5 min), and resuspended in 1 mL Tyrode's Solution, pH 7.4.
2.5 μL BCECF-loaded cells, along with either 10 μL DMSO or 100×compound in DMSO, are added to 937.5 μL of Tyrode's Solution in a quartz 1.0 mL cuvette (PerkinElmer, B0631116). Fluorescence measurements are performed on a PerkinElmer LS55 fluorescence spectrometer with dual excitation wavelengths achieved using a filter wheel (FL Winlab program: Fast Filter; Excitation 490/440; Emission 535). After establishing baseline BCECF fluorescence (around 10-20 s), 50 μL of 1 M sodium L-lactate (Sigma-Aldrich) is added to the cuvette (final concentration: 50 mM) and rapidly mixed. The time-dependent decrease in BCECF fluorescence (490/440 ratio) may be fit to an exponential decay curve (Prism GraphPad) to determine the rate of lactate transport.
Assay 2: MCT4-Mediated Lactate Transport in NCI-H358 Lung Adenocarcinoma Cells.
NCI-H358 lung adenocarcinoma cells may be used to measure MCT4 activity in cells with high native levels of MCT4 and low levels of MCT1 and are known to those with skill in the art. Preparation of BCECF-loaded cells and lactate transport activity may be determined as described for Assay 1.

T1 sequence (O15427 whole entry, looked up): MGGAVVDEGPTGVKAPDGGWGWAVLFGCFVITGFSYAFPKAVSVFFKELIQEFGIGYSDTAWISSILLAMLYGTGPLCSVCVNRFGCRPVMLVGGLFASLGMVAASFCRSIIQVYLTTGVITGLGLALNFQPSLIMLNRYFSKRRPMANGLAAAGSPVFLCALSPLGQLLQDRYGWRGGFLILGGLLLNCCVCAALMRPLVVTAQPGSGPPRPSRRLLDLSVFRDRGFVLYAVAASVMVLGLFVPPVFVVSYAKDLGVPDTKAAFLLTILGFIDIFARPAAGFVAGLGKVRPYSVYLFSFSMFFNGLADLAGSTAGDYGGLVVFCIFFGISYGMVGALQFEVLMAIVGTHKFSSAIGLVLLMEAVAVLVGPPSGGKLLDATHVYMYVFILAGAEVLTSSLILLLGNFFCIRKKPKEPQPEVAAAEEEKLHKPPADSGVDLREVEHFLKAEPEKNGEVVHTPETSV
T1 sequence (P35613 whole entry partner, looked up): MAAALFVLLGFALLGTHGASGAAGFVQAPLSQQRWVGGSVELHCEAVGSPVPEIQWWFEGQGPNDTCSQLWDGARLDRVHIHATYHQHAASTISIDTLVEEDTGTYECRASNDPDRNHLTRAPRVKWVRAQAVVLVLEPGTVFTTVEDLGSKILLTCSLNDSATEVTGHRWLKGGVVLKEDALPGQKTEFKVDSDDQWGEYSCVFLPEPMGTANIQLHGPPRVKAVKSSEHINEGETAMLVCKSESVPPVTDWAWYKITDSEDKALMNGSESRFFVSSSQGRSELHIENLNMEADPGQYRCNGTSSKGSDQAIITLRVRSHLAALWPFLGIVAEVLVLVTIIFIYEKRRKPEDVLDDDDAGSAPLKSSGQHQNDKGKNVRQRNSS
Chain of MCT1 (P53985 whole entry): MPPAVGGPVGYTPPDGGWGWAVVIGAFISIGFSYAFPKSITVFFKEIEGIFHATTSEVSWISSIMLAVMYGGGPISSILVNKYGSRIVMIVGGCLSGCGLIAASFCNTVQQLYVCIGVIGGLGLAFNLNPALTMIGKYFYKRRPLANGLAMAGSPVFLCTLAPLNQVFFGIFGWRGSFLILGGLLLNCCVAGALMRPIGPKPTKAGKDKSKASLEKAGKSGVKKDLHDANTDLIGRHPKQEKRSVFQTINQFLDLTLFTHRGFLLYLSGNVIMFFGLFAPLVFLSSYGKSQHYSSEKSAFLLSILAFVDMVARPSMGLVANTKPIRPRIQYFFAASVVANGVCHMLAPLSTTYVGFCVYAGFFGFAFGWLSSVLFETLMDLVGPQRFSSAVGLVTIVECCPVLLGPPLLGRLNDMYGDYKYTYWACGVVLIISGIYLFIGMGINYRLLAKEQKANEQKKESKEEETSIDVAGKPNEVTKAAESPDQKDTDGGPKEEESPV
Chain of MCT1 (P35613 140-385 partner): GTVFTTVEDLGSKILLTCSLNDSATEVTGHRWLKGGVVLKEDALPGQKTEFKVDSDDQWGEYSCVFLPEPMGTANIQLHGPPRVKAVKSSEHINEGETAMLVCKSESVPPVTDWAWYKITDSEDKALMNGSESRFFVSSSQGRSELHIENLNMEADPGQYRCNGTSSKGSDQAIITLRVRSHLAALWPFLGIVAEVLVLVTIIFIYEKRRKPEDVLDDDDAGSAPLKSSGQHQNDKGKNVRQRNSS

By IC50 is commonly meant the concentration that inhibits the measured activity by half. `CC(C)(OCc1cc(-c2ccccc2)n(Cc2cccc(Cl)c2)n1)C(=O)O` [Example 1, 2-[[1-[(3-Chlorophenyl)methyl]-5-phenyl-pyrazol-3-yl]methoxy]-2-methyl-propanoic Acid]: the IC50 is 50000 nM against MCT1, 340 nM on MCT4 [1] and 140 nM at MCT4 [2].

As to `CC(C)(OCc1cc(-c2ccc(Cl)cc2)n(Cc2ccc(Cl)cc2)n1)C(=O)O` [Example 2], the values for the IC50 against MCT1, at MCT4 [1] and on MCT4 [2] were 29000 nM, 450 nM and 240 nM, respectively.

On to `CC(C)(OCc1cc(-c2ccc(Cl)cc2)n(Cc2ccccc2Cl)n1)C(=O)O` [Example 3, 2-[[5-(4-Chlorophenyl)-1-[(2-chlorophenyl)methyl]pyrazol-3-yl]methoxy]-2-methyl-propanoic acid], for which the IC50 was found to be 25000 nM against MCT1, 72 nM on MCT4 [1] and 60 nM on MCT4 [2].

Take `CC(C)(OCc1cc(-c2ccc(F)cc2)n(Cc2ccccc2Cl)n1)C(=O)O` [Example 4, 2-[[1-[(2-Chlorophenyl)methyl]-5-(4-fluorophenyl)pyrazol-3-yl]methoxy]-2-methyl-propanoic acid]: the IC50 amounted to 33000 nM at MCT1, 68 nM at MCT4 [1] and 54 nM on MCT4 [2].

`CC(C)(OCc1cc(-c2ccc(Cl)cc2)n(Cc2ccc(Cl)cc2Cl)n1)C(=O)O` [Example 5, 2-[[5-(4-Chlorophenyl)-1-[(2,4-dichlorophenyl)methyl]pyrazol-3-yl]methoxy]-2-methyl-propanoic acid]: the results for the IC50 against MCT1, at MCT4 [1] and against MCT4 [2] were 1800 nM, 160 nM and 63 nM, respectively.

As to `O=C(O)COCc1cc(-c2ccc(Cl)cc2)n(Cc2ccc(Cl)cc2Cl)n1` [Example 6, 2-[[5-(4-Chlorophenyl)-1-[(2,4-dichlorophenyl)methyl]pyrazol-3-yl]methoxy]acetic acid], the IC50 at MCT1 is 6600 nM; on MCT4 [1], 2400 nM; on MCT4 [2], 4600 nM.

For `CC(C)(OCc1cc(-c2ccc(Cl)cc2)n(Cc2ccccc2)n1)C(=O)O` [Example 7, 2-[[1-Benzyl-5-(4-Chlorophenyl)pyrazol-3-yl]methoxy]-2-methyl-propanoic acid], the IC50 amounted to 70000 nM against MCT1, 720 nM on MCT4 [1] and 460 nM against MCT4 [2].

As to `CC(C)(OCc1cc(-c2ccccc2)n(Cc2ccccc2Cl)n1)C(=O)O` [Example 8, 2-[[1-[(2-Chlorophenyl)methyl]-5-phenyl-pyrazol-3-yl]methoxy]-2-methyl-propanoic acid], the IC50 was found to be 46000 nM against MCT1, 69 nM at MCT4 [1] and 81 nM against MCT4 [2].

For the compound `CC(C)(OCc1cc(-c2ccccc2Cl)n(Cc2ccccc2Cl)n1)C(=O)O` [Example 9, 2-[[5-(2-Chlorophenyl)-1-[(2-chlorophenyl)methyl]pyrazol-3-yl]methoxy]-2-methyl-propanoic acid], the IC50 amounted to 39000 nM against MCT1, 320 nM on MCT4 [1] and 340 nM at MCT4 [2].

In the case of `CC(C)(OCc1cc(-c2cccc(Cl)c2)n(Cc2ccccc2Cl)n1)C(=O)O` [Example 10, 2-[[5-(3-Chlorophenyl)-1-[(2-chlorophenyl)methyl]pyrazol-3-yl]methoxy]-2-methyl-propanoic acid], the figures for the IC50 at MCT1, at MCT4 [1] and against MCT4 [2] were 8800 nM, 21 nM and 33 nM, respectively.

For `Cc1cccc(-c2cc(COC(C)(C)C(=O)O)nn2Cc2ccccc2Cl)c1` [Example 11, 2-[[1-[(2-Chlorophenyl)methyl]-5-(m-tolyl)pyrazol-3-yl]methoxy]-2-methyl-propanoic acid], the IC50 at MCT1 came to 29000 nM; at MCT4 [1] it was 45 nM; on MCT4 [2], 25 nM.

Take `CC(C)(OCc1cc(-c2cccc(F)c2)n(Cc2ccccc2Cl)n1)C(=O)O` [Example 12, 2-[[1-[(2-Chlorophenyl)methyl]-5-(3-fluorophenyl)pyrazol-3-yl]methoxy]-2-methyl-propanoic acid]: the figures for the IC50 against MCT1, on MCT4 [1] and against MCT4 [2] were 58000 nM, 38 nM and 49 nM, respectively.

Regarding `CC(C)(OCc1cc(-c2cccc(C(F)(F)F)c2)n(Cc2ccccc2Cl)n1)C(=O)O` [Example 13, 2-[[1-[(2-Chlorophenyl)methyl]-5-[3-(trifluoromethyl)phenyl]pyrazol-3-yl]methoxy]-2-methyl-propanoic acid], the IC50 at MCT1 was found to be 17000 nM; on MCT4 [1], 20 nM; against MCT4 [2] it was 22 nM.

On to `CC(C)(OCc1cc(C2CCCCC2)n(Cc2ccccc2Cl)n1)C(=O)O` [Example 15, 2-[[1-[(2-Chlorophenyl)methyl]-5-cyclohexyl-pyrazol-3-yl]methoxy]-2-methyl-propanoic acid], for which the IC50 is above 33000 nM against MCT1, 900 nM on MCT4 [1] and 440 nM at MCT4 [2].

As to `CC(C)(OCc1cc(C2CCCC2)n(Cc2ccccc2Cl)n1)C(=O)O` [Example 16, 2-[[1-[(2-Chlorophenyl)methyl]-5-cyclopentyl-pyrazol-3-yl]methoxy]-2-methyl-propanoic acid], the IC50 against MCT1 worked out at 73000 nM; on MCT4 [1], 1000 nM; at MCT4 [2], 640 nM.

Regarding `O=C(O)C1(OCc2cc(-c3ccc(Cl)cc3)n(Cc3ccccc3Cl)n2)CC1` [Example 17, 1-[[5-(4-Chlorophenyl)-1-[(2-chlorophenyl)methyl]pyrazol-3-yl]methoxy]cyclopropanecarboxylic acid], the results for the IC50 against MCT1, at MCT4 [1] and at MCT4 [2] were 1200 nM, 440 nM and 860 nM, respectively.

`CC(C)(OCc1cc(-c2nccs2)n(Cc2ccccc2Cl)n1)C(=O)O` [Example 18, 2-[[1-[(2-Chlorophenyl)methyl]-5-thiazol-2-yl-pyrazol-3-yl]methoxy]-2-methyl-propanoic acid]: the IC50 worked out at 45000 nM at MCT1, 5300 nM at MCT4 [1] and 4200 nM against MCT4 [2].

`CC(C)(OCc1cc(-c2ccc(Cl)cc2)n(Cc2ccccc2F)n1)C(=O)O` [Example 19, 2-[[5-(4-Chlorophenyl)-1-[(2-fluorophenyl)methyl]pyrazol-3-yl]methoxy]-2-methyl-propanoic acid]: the values for the IC50 on MCT1, on MCT4 [1] and at MCT4 [2] were 57000 nM, 110 nM and 160 nM, respectively.

Regarding `CC(C)(OCc1cc(-c2ccc(Cl)cc2)n(Cc2ccccc2Cl)n1)C(N)=O` [Example 20, 2-[[5-(4-Chlorophenyl)-1-[(2-chlorophenyl)methyl]pyrazol-3-yl]methoxy]-2-methyl-propanamide], the IC50 against MCT1 was 7900 nM; at MCT4 [1], 17000 nM; against MCT4 [2], 22000 nM.

As for `CC(C)(OCc1cc(-c2ccc(Cl)cc2)n(Cc2ccncc2)n1)C(=O)O` [Example 21, 2-[[5-(4-chlorophenyl)-1-(4-pyridylmethyl)pyrazol-3-yl]methoxy]-2-methyl-propanoic acid], the IC50 at MCT1 turned out to be 300000 nM; at MCT4 [1], 35000 nM; on MCT4 [2] it was 48000 nM.

Consider `CC(C)(OCc1cc(-c2ccc(Cl)cc2)n(Cc2cccnc2)n1)C(=O)O` [Example 23, 2-[[5-(4-Chlorophenyl)-1-(3-pyridylmethyl)pyrazol-3-yl]methoxy]-2-methyl-propanoic acid], for which the figures for the IC50 on MCT4 [1] and at MCT4 [2] were 1500 nM and 2100 nM, respectively.

(Values after patent US10202350B2, “MCT4 inhibitors for treating disease” (Vettore, LLC, priority 2015, dated 2019).)
